# Reference: PubChem BioAssay (NCI)
#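 Dose response: 5 concentrations. Exposure: 48 h. Format: 96-well plates. Endpoint: linear interpolation; highest concentration if not reached. The concentration for 50% growth inhibition is given as GI50. Definition used: TGI = concentration required for complete inhibition of growth.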
# How the values were obtained:
# Assay in all cases: DTP human tumour cell line panel, 48 h
# HOP-62 NSCLC = tested on: HOP-62 NSCLC
# OVCAR-8 ovarian = tested on: OVCAR-8 ovarian
# SW-620 colon = tested on: SW-620 colon
# HS 578T breast = tested on: HS 578T breast
# IGROV1 ovarian = tested on: IGROV1 ovarian
# CCRF-CEM leukemia = tested on: CCRF-CEM leukemia
# SF-539 CNS = tested on: SF-539 CNS
# SK-MEL-28 melanoma = tested on: SK-MEL-28 melanoma
# SK-MEL-5 melanoma = tested on: SK-MEL-5 melanoma
# 786-0 renal = tested on: 786-0 renal
# SR leukemia = tested on: SR leukemia
# A549 NSCLC = tested on: A549 NSCLC
# UACC-62 melanoma = tested on: UACC-62 melanoma
# LOX IMVI melanoma = tested on: LOX IMVI melanoma
# HL-60(TB) leukemia = tested on: HL-60(TB) leukemia
# ACHN renal = tested on: ACHN renal
# SF-295 CNS = tested on: SF-295 CNS
# OVCAR-4 ovarian = tested on: OVCAR-4 ovarian
# NCI-H23 lung = tested on: NCI-H23 lung
# HCC-2998 colon = tested on: HCC-2998 colon
# MCF7 breast = tested on: MCF7 breast
# UO-31 renal = tested on: UO-31 renal
# MDA-MB-435 = tested on: MDA-MB-435
# SNB-19 CNS = tested on: SNB-19 CNS
# UACC-257 melanoma = tested on: UACC-257 melanoma
# OVCAR-3 ovarian = tested on: OVCAR-3 ovarian
# HT29 colon = tested on: HT29 colon
# NCI-H460 lung = tested on: NCI-H460 lung
# NCI-H522 lung = tested on: NCI-H522 lung
# HCT-116 colon = tested on: HCT-116 colon
# A498 renal = tested on: A498 renal
# SNB-75 CNS = tested on: SNB-75 CNS
# COLO 205 colon = tested on: COLO 205 colon
# MDA-MB-231 breast = tested on: MDA-MB-231 breast
# PC-3 prostate = tested on: PC-3 prostate
# HOP-92 NSCLC = tested on: HOP-92 NSCLC
# SN12C renal = tested on: SN12C renal
# OVCAR-5 ovarian = tested on: OVCAR-5 ovarian
# NCI/ADR-RES ovarian = tested on: NCI/ADR-RES ovarian
# TK-10 renal = tested on: TK-10 renal
# CAKI-1 renal = tested on: CAKI-1 renal
# M14 melanoma = tested on: M14 melanoma
# EKVX NSCLC = tested on: EKVX NSCLC
# SF-268 CNS = tested on: SF-268 CNS
# BT-549 breast = tested on: BT-549 breast
# T-47D breast = tested on: T-47D breast
# HCT-15 colon = tested on: HCT-15 colon
# RXF 393 renal = tested on: RXF 393 renal
# NCI-H226 lung = tested on: NCI-H226 lung
# KM12 colon = tested on: KM12 colon
# DU-145 prostate = tested on: DU-145 prostate
# RPMI-8226 leukemia = tested on: RPMI-8226 leukemia
# SK-MEL-2 melanoma = tested on: SK-MEL-2 melanoma
# K-562 leukemia = tested on: K-562 leukemia
# MOLT-4 leukemia = tested on: MOLT-4 leukemia
smiles,measurement,setting,value
CC(=O)OC1CC2C(C)(C)C(=O)C=C[C@]2(C)C2CC[C@]3(C)C(OCC(=O)[C@H]3c3ccoc3)[C@]12C (stereo not given in full),GI50,HOP-62 NSCLC,8.29 µM
same,TGI,HOP-62 NSCLC,21.6 µM
same,GI50,OVCAR-8 ovarian,8.3 µM
same,TGI,OVCAR-8 ovarian,27.6 µM
same,GI50,SW-620 colon,11.1 µM
same,TGI,SW-620 colon,39.3 µM
same,GI50,HS 578T breast,19.4 µM
same,TGI,HS 578T breast,> 100 µM
same,GI50,IGROV1 ovarian,7.83 µM
same,TGI,IGROV1 ovarian,34.9 µM
same,GI50,CCRF-CEM leukemia,4.06 µM
same,TGI,CCRF-CEM leukemia,16.3 µM
same,GI50,SF-539 CNS,15.2 µM
same,TGI,SF-539 CNS,31.3 µM
same,GI50,SK-MEL-28 melanoma,4.63 µM
same,TGI,SK-MEL-28 melanoma,18.5 µM
same,GI50,SK-MEL-5 melanoma,11.5 µM
same,TGI,SK-MEL-5 melanoma,28 µM
same,GI50,786-0 renal,4.66 µM
same,TGI,786-0 renal,21.7 µM
same,GI50,SR leukemia,2270 nM
same,TGI,SR leukemia,14.5 µM
same,GI50,A549 NSCLC,6.28 µM
same,TGI,A549 NSCLC,23.1 µM
same,GI50,UACC-62 melanoma,5.89 µM
same,TGI,UACC-62 melanoma,21.7 µM
same,GI50,LOX IMVI melanoma,3.94 µM
same,TGI,LOX IMVI melanoma,14.9 µM
same,GI50,HL-60(TB) leukemia,3.11 µM
same,TGI,HL-60(TB) leukemia,17.8 µM
same,GI50,ACHN renal,13.4 µM
same,TGI,ACHN renal,31.4 µM
same,GI50,SF-295 CNS,16.5 µM
same,TGI,SF-295 CNS,48.6 µM
same,GI50,OVCAR-4 ovarian,4.2 µM
same,TGI,OVCAR-4 ovarian,17.2 µM
same,GI50,NCI-H23 lung,8.66 µM
same,TGI,NCI-H23 lung,26.5 µM
same,GI50,HCC-2998 colon,11.3 µM
same,TGI,HCC-2998 colon,24.7 µM
same,GI50,MCF7 breast,6.6 µM
same,TGI,MCF7 breast,35.7 µM
same,GI50,UO-31 renal,10.1 µM
same,TGI,UO-31 renal,22.6 µM
same,GI50,MDA-MB-435,2530 nM
same,TGI,MDA-MB-435,8.58 µM
same,GI50,SNB-19 CNS,6.53 µM
same,TGI,SNB-19 CNS,21.2 µM
same,GI50,UACC-257 melanoma,2510 nM
same,TGI,UACC-257 melanoma,15 µM
same,GI50,OVCAR-3 ovarian,5.56 µM
same,TGI,OVCAR-3 ovarian,22.9 µM
same,GI50,HT29 colon,2760 nM
same,TGI,HT29 colon,11.6 µM
same,GI50,NCI-H460 lung,3.93 µM
same,TGI,NCI-H460 lung,15.2 µM
same,GI50,NCI-H522 lung,3.15 µM
same,TGI,NCI-H522 lung,10.1 µM
same,GI50,HCT-116 colon,3.42 µM
same,TGI,HCT-116 colon,11.4 µM
same,GI50,A498 renal,12.7 µM
same,TGI,A498 renal,29.7 µM
same,GI50,SNB-75 CNS,4.68 µM
same,TGI,SNB-75 CNS,17.1 µM
same,GI50,COLO 205 colon,1910 nM
same,TGI,COLO 205 colon,8.48 µM
same,GI50,MDA-MB-231 breast,8.99 µM
same,TGI,MDA-MB-231 breast,29.4 µM
same,GI50,PC-3 prostate,3.88 µM
same,TGI,PC-3 prostate,17.1 µM
same,GI50,HOP-92 NSCLC,10.7 µM
same,TGI,HOP-92 NSCLC,35.5 µM
same,GI50,SN12C renal,8.64 µM
same,TGI,SN12C renal,28.6 µM
same,GI50,OVCAR-5 ovarian,23.9 µM
same,TGI,OVCAR-5 ovarian,46.2 µM
same,GI50,NCI/ADR-RES ovarian,5.07 µM
same,TGI,NCI/ADR-RES ovarian,22.9 µM
same,GI50,TK-10 renal,10.4 µM
same,TGI,TK-10 renal,35.7 µM
same,GI50,CAKI-1 renal,3.58 µM
same,TGI,CAKI-1 renal,23.9 µM
same,GI50,M14 melanoma,12.4 µM
same,TGI,M14 melanoma,27.3 µM
same,GI50,EKVX NSCLC,18 µM
same,TGI,EKVX NSCLC,> 100 µM
same,GI50,SF-268 CNS,2820 nM
same,TGI,SF-268 CNS,10.5 µM
same,GI50,BT-549 breast,8.63 µM
same,TGI,BT-549 breast,57.8 µM
same,GI50,T-47D breast,2970 nM
same,TGI,T-47D breast,15.4 µM
same,GI50,HCT-15 colon,4.19 µM
same,TGI,HCT-15 colon,15.8 µM
same,GI50,RXF 393 renal,4.43 µM
same,TGI,RXF 393 renal,18.8 µM
same,GI50,NCI-H226 lung,11.8 µM
same,TGI,NCI-H226 lung,31.4 µM
same,GI50,KM12 colon,3.77 µM
same,TGI,KM12 colon,12.3 µM
same,GI50,DU-145 prostate,3.89 µM
same,TGI,DU-145 prostate,19.8 µM
same,GI50,RPMI-8226 leukemia,2460 nM
same,TGI,RPMI-8226 leukemia,6.8 µM
same,GI50,SK-MEL-2 melanoma,13.8 µM
same,TGI,SK-MEL-2 melanoma,42.3 µM
same,GI50,K-562 leukemia,2250 nM
same,TGI,K-562 leukemia,7.04 µM
same,GI50,MOLT-4 leukemia,3.62 µM
same,TGI,MOLT-4 leukemia,22.1 µM
